Experimental data taken from patent US20150274834A1, “COMBINATION THERAPY OF AN AFUCOSYLATED CD20 ANTIBODY WITH FLUDARABINE AND/OR MITOXANTRONE” (Roche Glycart AG, priority 2009, published 2015).

Experiments:
[1] = tested on: NHL cell lines (Granta-519, HBL-2, Jeko-1, Rec-1, Z-138, Karpas-422); assay: Trypan blue exclusion viability/proliferation test, NHL cell line panel; type: cell-based; settings: chemotherapeutic alone (Fludarabine 0.25 μg/ml; Mitoxantrone 0.25 and 0.5 μg/ml), across cell lines
From the text: The following Non-Hodgkin Lymphoma (NHL) cell lines were used in the experiments: Granta-519, HBL-2, Rec-1 and Z-138 as Mantle Cell Lymphoma cell lines and a Karpas-422 as a Diffuse Large B-Cell Lymphoma cell line. All cell lines were obtained from the “Deutsche Sammlung von Mikroorganismen and Zellkulturen GmbH” (DSMZ), Braunschweig, Germany. […] Granta 519, HBL-2, JeKo-1, Rec-1 and Z-138 were cultivated in RPMI-1640 medium with 10% heat-inactivated FCS and 1% Penicillin/Streptomycin. The density of viable cells was determined with BeckmanCoulter ViCell™ Cell Viability Analyzer on the basis of the trypan blue cell exclusion method. The test is based on the principle that viable cells have an intact cell membrane that blocks the uptake of trypan blue whereas dead cells have lost this ability. Therefore viable cells have a transparent cytoplasm whereas dead cells can be identified due to their blue cytoplasm. […] Trypan-blue exclusion tests were used to analyze cell viability. […] These concentrations were determined in pre-experiments on MCL cells • 1. 0.25 μg/ml Fludarabine • 2. 0.25 and 0.5 μg/ml Mitoxantrone 1 ml samples were taken at 0 h, 24 h, 48 h, 72 h every day and the number of viable cells was determined. […] Experiments were independently performed three times.

HBL-2 MCL cells = assay: Trypan blue exclusion viability/proliferation test, HBL-2; type: cell-based; settings: mono-exposure 1 μg/ml
Procedure: (§1) The following Non-Hodgkin Lymphoma (NHL) cell lines were used in the experiments: Granta-519, HBL-2, Rec-1 and Z-138 as Mantle Cell Lymphoma cell lines and a Karpas-422 as a Diffuse Large B-Cell Lymphoma cell line. All cell lines were obtained from the “Deutsche Sammlung von Mikroorganismen and Zellkulturen GmbH” (DSMZ), Braunschweig, Germany.
(§2) All cell lines were stored according to standard procedures and cultivated at 37° C., 5% CO2- and 95% relative humidity in a CO2 incubator. Granta 519, HBL-2, JeKo-1, Rec-1 and Z-138 were cultivated in RPMI-1640 medium with 10% heat-inactivated FCS and 1% Penicillin/Streptomycin.
(§3) The density of viable cells was determined with BeckmanCoulter ViCell™ Cell Viability Analyzer on the basis of the trypan blue cell exclusion method. The test is based on the principle that viable cells have an intact cell membrane that blocks the uptake of trypan blue whereas dead cells have lost this ability. Therefore viable cells have a transparent cytoplasm whereas dead cells can be identified due to their blue cytoplasm.
(§4) Trypan-blue exclusion tests were used to analyze cell viability.
(§5) These concentrations were determined in pre-experiments on MCL cells • 1. 0.25 μg/ml Fludarabine • 2. 0.25 and 0.5 μg/ml Mitoxantrone
(§6) 1 ml samples were taken at 0 h, 24 h, 48 h, 72 h every day and the number of viable cells was determined. […]

Jeko-1 MCL cells = assay: Trypan blue exclusion viability/proliferation test, Jeko-1; type: cell-based; settings: mono-exposure 1 μg/ml
Procedure: as §2, §3, §4, §5
1 ml samples were taken at 0 h, 24 h, 48 h, 72 h every day and the number of viable cells was determined. The reduction of cell proliferation was used for a fractional product calculation (synergism >0.1; additive effect −0.1<x<0.1; antagonism <−0.1). Experiments were independently performed three times.

Granta-519 MCL cells = assay: Trypan blue exclusion viability/proliferation test, Granta-519; type: cell-based; settings: mono-exposure 1 μg/ml
Procedure: as §1, §2, §3, §4, §5, §6

[2] = tested on: human Z138 mantle cell lymphoma xenograft; assay: Tumor growth inhibition study in vivo, Z138 xenograft; set-up: species or system SCID beige mice; settings: day 36 after tumor cell inoculation; antibodies 1 mg/kg i.v. day 22 and 29; fludarabine 40 mg/kg i.p. day 22-25
Procedure: Antibody buffer included histidine, trehalose and polysorbate 20.
Cells were co-injected with Matrigel.
Experimental study protocol was reviewed and approved by local government. […] Continuous health monitoring was carried out on regular basis. Diet food (Provimi Kliba 3337) and water (acidified pH 2.5-3) were provided ad libitum.
Animals were controlled daily for clinical symptoms and detection of adverse effects.
The corresponding vehicle was administered on the same days.

Rec-1 MCL cells = assay: Trypan blue exclusion viability/proliferation test, Rec-1; type: cell-based; settings: mono-exposure 1 μg/ml
Procedure: as §1, §2, §3, §4, §5, §6

Molecule	cell reduction [1]	cell reduction (HBL-2 MCL cells)	cell reduction (Jeko-1 MCL cells) [%]	cell reduction (Granta-519 MCL cells)	tumor growth inhibition compared to the control group [2] [%]	cell reduction (Rec-1 MCL cells)
O=C1c2c(O)ccc(O)c2C(=O)c2c(NCCNCCO)ccc(NCCNCCO)c21 [Mitoxantrone, 1,4-dihydroxy-5,8-bis[2-(2-hydroxyethylamino)ethylamino]-anthracene-9,10-dione]	80-95%					
B-HH6-B-KV1 GE: afucosylated type II anti-CD20 antibody; humanized B-Ly1 IgG1, VH SEQ ID NO: 7 (B-HH6), VL SEQ ID NO: 20 (B-KV1), glycoengineered		20-30%	5	65-75%	86	30-45%
